Measurements taken from paper PMC9230201, “Sustained Consumption of a Decaffeinated Green Coffee Nutraceutical Has Limited Effects on Phenolic Metabolism and Bioavailability in Overweight/Obese Subjects” (Nutrients, 2022).

Key:
[1] = Fecal excretion of phenolic metabolites after intake of the GCPE nutraceutical; conditions: feces
Experimental: Participants attended the Human Nutrition Unit (HNU) at the Institute of Food Science, Technology and Nutrition (ICTAN-CSIC) on two consecutive days at the beginning of the intervention (week 0) and also on two consecutive days at the end of the study, after consuming daily two doses of the GCPE nutraceutical, providing 600 mg/d phenols, during two months (week 8). […] A licensed health care professional placed an intravenous catheter in the subjects′ nondominant arm and collected a fasting blood sample (baseline, 0 h). Then, subjects drank the soluble GCPE nutraceutical dissolved in 200 mL of water. […] On the sampling days, volunteers remained at the HNU, where a (poly)phenol-free diet was provided. Half an hour after consuming the nutraceutical, volunteers ate a breakfast consisting of ham, cheese, white bread, and a yogurt. Lunch (paella, bread, and yogurt) and an afternoon snack (muffin and yogurt) were eaten 5 and 9 h, respectively, after consuming the nutraceutical. Water and isotonic beverages were freely available. […] The same protocol was followed during visits at the end of the 8-week intervention. On each occasion, two days before each visit to the HNU, subjects consumed a low (poly)phenol diet free of foods containing hydroxycinnamates such as coffee, herbal teas, red wine, artichokes, whole grain cereals, vegetables, fruits and fruit juices, and dried fruits. Only banana, watermelon, cantaloupes, and potatoes were allowed.
(§1) Blood samples were immediately centrifuged (10 min, 3000 rpm, 4 °C) to obtain plasma. […] All biological samples were stored at −80 °C until analysis.
To extract plasma metabolites, 10 µL of 50% (v/v) aqueous formic acid, and 900 µL cold acetonitrile containing 50 µL of 10% (w/v) ascorbic acid were added to 400 µL defrosted plasma. Samples were vortexed and centrifuged (14,000 rpm, 10 min, 4 °C), repeating the extraction and combining the two supernatants, which were reduced to dryness under nitrogen [13]. Dried samples were resuspended in 150 µL of 0.1% aqueous formic acid (containing 10% acetonitrile acidified with 0.1% formic acid), centrifuged (15 min, 14,000 rpm, 4 °C), and the supernatant collected. Urine samples were diluted 1:1 with Milli-Q water and centrifuged (14,000 rpm, 20 min, 4 °C) prior to analysis. Phosphate-buffered saline (3 mL) was added to a representative 300 mg sample of thawed feces, homogenized in an ultrasound bath during 10 min, centrifuged (14,000 rpm, 20 min, 4 °C), and the supernatants collected.
Mobile phase A was 0.1% formic acid in Milli-Q water, and mobile phase B was acetonitrile containing 0.1% formic acid at a 0.3 mL/min flow rate. […] Metabolites were identified based on their retention time using authentic standards when possible. […] Urine concentration of excreted metabolites was normalized to the total volume excreted in each studied interval.
Plasma (30 µL), urine (5 µL) and fecal extracts (5 µL) were filtered through 0.45 µm
cellulose-acetate membrane filters and injected into an Agilent 1200 series LC system
ESI-Jet Stream Technology (Agilent Technologies). A reverse-phase Ascentis Express
C18 (15 cm x 3 mm, 2.7 µm) column (Sigma-Aldrich Quimica, Madrid), preceded by a
phase A was 0.1% formic acid in Milli-Q water, and mobile phase B was acetonitrile
containing 0.1% formic acid at a 0.3 mL/min flow rate. The gradient started with 10% B
at 0 min, 30% B at 10 min, 40% B at 15 min, reaching 50% B at 20 min. The starting
gradient was then re-established in 2 min and maintained for 8 min to re-equilibrate the

[2] = Urinary excretion of phenolic metabolites after intake of the GCPE nutraceutical; conditions: for Cumulative urinary excretion, Total 0–24 h / Urinary excretion: urine; for Cumulative urinary excretion, Total 0–24 h: mean ± SEM, n = 9
[3] = Plasma pharmacokinetics of phenolic metabolites after intake of the GCPE nutraceutical (LC-MS-QToF); conditions: for Cmax: mean ± SEM, n = 9; for AUC(0-t) / Tmax: 300 mg hydroxycinnamic acids; for AUC(0-t): AUC0–24h; for Tmax: Tmax (h) or Range
Experimental: Participants attended the Human Nutrition Unit (HNU) at the Institute of Food Science, Technology and Nutrition (ICTAN-CSIC) on two consecutive days at the beginning of the intervention (week 0) and also on two consecutive days at the end of the study, after consuming daily two doses of the GCPE nutraceutical, providing 600 mg/d phenols, during two months (week 8). On each occasion, on the first visit day (Figure 1), subjects arrived at the HNU after an overnight (12 h) fast and provided a urine sample. A licensed health care professional placed an intravenous catheter in the subjects′ nondominant arm and collected a fasting blood sample (baseline, 0 h). Then, subjects drank the soluble GCPE nutraceutical dissolved in 200 mL of water. Subsequently, blood samples were collected in EDTA-coated tubes at 0.5, 1, 1.5, 2, 3, 4, 6, 8, 10, and 11 h. On the sampling days, volunteers remained at the HNU, where a (poly)phenol-free diet was provided. Half an hour after consuming the nutraceutical, volunteers ate a breakfast consisting of ham, cheese, white bread, and a yogurt. Lunch (paella, bread, and yogurt) and an afternoon snack (muffin and yogurt) were eaten 5 and 9 h, respectively, after consuming the nutraceutical. Water and isotonic beverages were freely available. Volunteers were instructed to eat a (poly)phenol-free dinner that night and to attend the HNU on the next day after a 12 h fast. Then, a final blood sample was obtained from the antecubital vein 24 h after consuming the nutraceutical. The same protocol was followed during visits at the end of the 8-week intervention. On each occasion, two days before each visit to the HNU, subjects consumed a low (poly)phenol diet free of foods containing hydroxycinnamates such as coffee, herbal teas, red wine, artichokes, whole grain cereals, vegetables, fruits and fruit juices, and dried fruits. Only banana, watermelon, cantaloupes, and potatoes were allowed.
as §1
To extract plasma metabolites, 10 µL of 50% (v/v) aqueous formic acid, and 900 µL cold acetonitrile containing 50 µL of 10% (w/v) ascorbic acid were added to 400 µL defrosted plasma. Samples were vortexed and centrifuged (14,000 rpm, 10 min, 4 °C), repeating the extraction and combining the two supernatants, which were reduced to dryness under nitrogen [13]. Dried samples were resuspended in 150 µL of 0.1% aqueous formic acid (containing 10% acetonitrile acidified with 0.1% formic acid), centrifuged (15 min, 14,000 rpm, 4 °C), and the supernatant collected.
A reverse-phase Ascentis Express C18 (15 cm × 3 mm, 2.7 µm) column (Sigma-Aldrich Quimica, Madrid, Spain), preceded by a Supelco 55215-U guard column (3 mm × 5 mm, 2.7 µm), was used for separation. Mobile phase A was 0.1% formic acid in Milli-Q water, and mobile phase B was acetonitrile containing 0.1% formic acid at a 0.3 mL/min flow rate. […] Metabolites were identified based on their retention time using authentic standards when possible.

[4] = week 0, GCPE nutraceutical with 300 mg hydroxycinnamic acids
[5] = week 0, first peak where biphasic
[6] = week 8, GCPE nutraceutical with 300 mg hydroxycinnamic acids
[7] = week 8, first peak where biphasic
[8] = human, oral, week 0, first peak where biphasic
[9] = human, oral, week 8, first peak where biphasic
[10] = human, oral, 300 mg, Cmax, week 0, GCPE nutraceutical with 300 mg hydroxycinnamic acids
[11] = human, oral, 300 mg, Cmax, week 8, GCPE nutraceutical with 300 mg hydroxycinnamic acids

Amount of fecal metabolite excreted at 0 h ([1]; week 0, mean ± SEM, n = 9) | Amount of fecal metabolite excreted at 0 h ([1]; week 8) | Amount of fecal metabolite excreted at 24 h ([1]; week 0) | Amount of fecal metabolite excreted at 24 h ([1]; week 8) | Cumulative urinary excretion, Total 0–24 h ([2]; week 0) | Cumulative urinary excretion, Total 0–24 h ([2]; week 8) | Amount excreted in urine, 0- 3 h ([2]; week 0, interval 0–3 h) | Amount excreted in urine, 3-6 h ([2]; week 0, interval 3–6 h) | Amount excreted in urine, 6-9 h ([2]; week 0, interval 6–9 h) | Amount excreted in urine, 9-11 h ([2]; week 0, interval 9–11 h) | Amount excreted in urine, 11-24 h ([2]; week 0, interval 11–24 h) | Amount excreted in urine, 0- 3 h ([2]; week 8, interval 0–3 h) | Amount excreted in urine, 3-6 h ([2]; week 8, interval 3–6 h) | Amount excreted in urine, 6-9 h ([2]; week 8, interval 6–9 h) | Amount excreted in urine, 9-11 h ([2]; week 8, interval 9–11 h) | Amount excreted in urine, 11-24 h ([2]; week 8, interval 11–24 h) | SMILES | AUC0–24h ([3]; week 0) | Cmax [3, 4] | Tmax (h) or Range [3, 5] | AUC0–24h ([3]; week 8) | further results
0.0009 ± 0.0007 µmol/g | 0.002 ± 0.002 µmol/g | 0.002 ± 0.001 µmol/g | 0.0003 ± 0.0003 µmol/g | 1.5 ± 0.2 µmol | 1.5 ± 0.2 µmol | 0.8 ± 0.2 µmol | 0.5 ± 0.1 µmol | 0.13 ± 0.04 µmol | 0.03 ± 0.01 µmol | 0.09 ± 0.01 µmol | 0.8 ± 0.1 µmol | 0.39 ± 0.07 µmol | 0.2 ± 0.04 µmol | 0.05 ± 0.03 µmol | 0.08 ± 0.02 µmol | COc1cc(/C=C/C(=O)O[C@@H]2C[C@@](O)(C(=O)O)C[C@@H](O)[C@@H]2O)ccc1O [5-Feruloylquinic acid] | 0.09 ± 0.02 µM/min | 32 ± 4 nM | 0.9 ± 0.1 h | 0.08 ± 0.02 µM/min | Cmax [3, 6]: 34 ± 5 nM; Tmax (h) or Range [3, 7]: 0.9 ± 0.1 h
0.011 ± 0.007 µmol/g | 0.005 ± 0.002 µmol/g | 0.008 ± 0.006 µmol/g | 0.0001 ± 0.0001 µmol/g | 16 ± 2 µmol | 31 ± 5 µmol | 0.5 ± 0.1 µmol | 0.37 ± 0.09 µmol | 2.3 ± 0.8 µmol | 2.7 ± 0.6 µmol | 7 ± 1 µmol | 1 ± 0.4 µmol | 1.4 ± 0.4 µmol | 3.8 ± 0.9 µmol | 3.1 ± 0.8 µmol | 6 ± 2 µmol | O=C(O)CCc1ccc(O)c(O)c1 [DHCA, 3-(3′,4′-Dihydroxyphenyl)propanoic acid] | – | – | – | – | Urinary excretion ([2]; week 0): 16 µmol/24 h; Urinary excretion ([2]; week 8): 31 µmol/24 h; Amount excreted in urine, TOTAL ([2]; week 0, Table S5 total): 16 ± 2 µmol; Amount excreted in urine, 0 h ([2]; week 8, 0 h (before intake on sampling day)): 15 ± 4 µmol; Amount excreted in urine, TOTAL ([2]; week 8, Table S6 total): 31 ± 5 µmol; AUC(0-t) ([3]; human, oral, week 0): 2 ± 0.6 µM·h; AUC(0-t) ([3]; human, oral, week 8): 2.1 ± 0.5 µM·h; Tmax [3, 8]: 10.2 ± 0.3 h; Tmax [3, 9]: 9.4 ± 0.5 h; Cmax [3, 10]: 220 ± 60 nM; Cmax [3, 11]: 220 ± 50 nM
0.013 ± 0.004 µmol/g | 0.018 ± 0.003 µmol/g | 0.019 ± 0.007 µmol/g | 0.014 ± 0.003 µmol/g | 0.5 ± 0.2 µmol | 1.1 ± 0.4 µmol | 0.03 ± 0.02 µmol | 0.007 ± 0.007 µmol | 0.08 ± 0.04 µmol | 0.05 ± 0.02 µmol | 0.11 ± 0.05 µmol | 0.08 ± 0.07 µmol | 0.03 ± 0.02 µmol | 0.07 ± 0.05 µmol | 0.09 ± 0.04 µmol | 0.07 ± 0.04 µmol | COc1cc(CCC(=O)O)ccc1O [DHFA, 3-(4′-Hydroxy-3′-methoxyphenyl)propanoic acid] | – | – | – | – | AUC(0-t) ([3]; human, oral, week 0): 2.2 ± 0.6 µM·h; AUC(0-t) ([3]; human, oral, week 8): 1.8 ± 0.3 µM·h; Tmax [3, 8]: 7.6 ± 0.4 h; Tmax [3, 9]: 8.4 ± 0.6 h; Cmax [3, 10]: 300 ± 100 nM; Cmax [3, 11]: 250 ± 60 nM

SMILES | Amount of fecal metabolite excreted at 0 h ([1]; week 0, mean ± SEM, n = 9) | Amount of fecal metabolite excreted at 0 h ([1]; week 8) | Amount of fecal metabolite excreted at 24 h ([1]; week 0) | Amount of fecal metabolite excreted at 24 h ([1]; week 8) | Cumulative urinary excretion, Total 0–24 h ([2]; week 0) | Cumulative urinary excretion, Total 0–24 h ([2]; week 8) | Amount excreted in urine, 0- 3 h ([2]; week 0, interval 0–3 h) | Amount excreted in urine, 3-6 h ([2]; week 0, interval 3–6 h) | Amount excreted in urine, 6-9 h ([2]; week 0, interval 6–9 h) | Amount excreted in urine, 9-11 h ([2]; week 0, interval 9–11 h) | Amount excreted in urine, 11-24 h ([2]; week 0, interval 11–24 h) | Amount excreted in urine, 0- 3 h ([2]; week 8, interval 0–3 h) | Amount excreted in urine, 3-6 h ([2]; week 8, interval 3–6 h) | Amount excreted in urine, 6-9 h ([2]; week 8, interval 6–9 h) | Amount excreted in urine, 9-11 h ([2]; week 8, interval 9–11 h) | Amount excreted in urine, 11-24 h ([2]; week 8, interval 11–24 h) | AUC0–24h ([3]; week 0) | Cmax [3, 4] | Tmax (h) or Range [3, 5] | AUC0–24h ([3]; week 8) | further results
COc1cc(CC(=O)O)ccc1O [4′-Hydroxy-3′-methoxyphenylacetic acid] | 0.007 ± 0.005 µmol/g | 0.0006 ± 0.0006 µmol/g | 0.02 ± 0.01 µmol/g | 0.003 ± 0.003 µmol/g | 13.2 ± 0.9 µmol | 12 ± 1 µmol | 1.3 ± 0.2 µmol | 0.9 ± 0.2 µmol | 0.9 ± 0.2 µmol | 0.7 ± 0.1 µmol | 3.6 ± 0.3 µmol | 1.5 ± 0.2 µmol | 0.8 ± 0.1 µmol | 1 ± 0.2 µmol | 0.68 ± 0.15 µmol | 2.9 ± 0.7 µmol | 1.4 ± 0.9 µM/min | 140 ± 60 nM | 7 ± 4 h | 1.5 ± 0.8 µM/min | Cmax [3, 6]: 120 ± 50 nM; Tmax (h) or Range [3, 7]: 4 ± 3 h
